From PMC4870556, “Triazole resistance mediated by mutations of a conserved active site tyrosine in fungal lanosterol 14α-demethylase” (Scientific Reports, 2016)
Read-outs that look alike come from different tables or passages of the source.

Columns and labels:
[1] = system: AD3ΔScErg11p (strain overexpressing wild type ScErg11p6 × His); assay: Broth microdilution MIC80, strain overexpressing wild type enzyme; format: cell-based; settings: Saccharomyces cerevisiae, 48 h, pH 6.8
Method: (§1) Susceptibilities to triazole drugs of S. cerevisiae AD3Δ strains overexpressing Erg11p6 × His Y140F/H, but with the native ERG11 deleted, were measured as liquid MIC80 values (Supplementary Table S2). Overexpression of ScErg11p6 × His Y140F in the AD3ΔScErg11p_Y140F strain conferred 2-fold lower susceptibility to FLC than the strain overexpressing wild type ScErg11p6 × His i.e. MIC80 of 4.0 μg/ml and 2.1 μg/ml, respectively. The same mutant conferred a 1.7-fold reduction in susceptibility to VCZ. The MIC80 values were 0.42 μg/ml for the strain overexpressing ScErg11p6 × His Y140F and 0.25 μg/ml for the strain overexpressing wild type ScErg11p6 × His.
The S. cerevisiae AD2Δ host was used to create the strains used in this study. The strain was made by deletion of the HIS1 gene from the previously described ADΔ[49] strain. ADΔ and AD2Δ lack 7 major ATP-binding cassette transporters and the PDR3 gene. Both strains have the gain-of function pdr1–3 mutation in the PDR1 transcriptional regulator gene to provide constitutive overexpression of ScErg11p6 × His from the PDR5 locus. Yeast strains were grown on YPD medium: 1% (wt/vol) Bacto-yeast extract (BD Difco™ Laboratories Inc, Franklin Lakes, NJ), 2% (wt/vol) Bacto-peptone (BD Difco™) and 2% (wt/vol) glucose. Synthetic defined (SD) medium was used for selection of transformants. […]
(§2) The susceptibilities of strains overexpressing wild type ScErg11p6 × His and ScErg11p6 × His Y140F/H to triazole drugs were measured as MIC80 values using broth microdilution assays. […] MIC80s to FLC, ITC and VCZ were determined in 96-well microtiter plates using SD buffered to pH 6.8 instead of RPMI[50]. […] Cell growth was assessed by measuring the OD600nm of wells using a BioTek Synergy™ 2 multi-mode plate reader (BioTek Instruments, Vermont, USA). Each MIC80 was determined using triplicate measurements for three clones of each strain in three separate experiments.

ScErg11p6 × His Y140F = biological target: T1, ScErg11p6 × His Y140F (Saccharomyces cerevisiae, UniProt P10614, Y140F); assay: Type II difference spectra triazole binding to affinity purified Y140F mutant enzyme; settings: for Hill number / IC50 / Kd: Y140F enzyme 1 μM; for IC50 / Kd: Hill equation fit; for IC50: IC50 value is denoted as [Azole]0.5; for Kd: standard error in brackets; for ΔAmax of type II difference spectra: Y140F enzyme, Ni-NTA affinity purified
T1 construct: full-length Saccharomyces cerevisiae hexahistidine-tagged Erg11p (ScErg11p6 × His); made in house; host or cells: Saccharomyces cerevisiae strain AD3ΔScErg11_Y140F (native ERG11 deleted)
Method: (§3) Ni-NTA affinity purified mutant and wild type ScErg11p6 × His preparations (1 μM) were used to detect and quantitate type II azole binding. The spectral shift of the Soret peak from 417 nm to 421–424 nm in cytochrome P450s is also detected by the type II difference spectra. This change is associated with the replacement of a water molecule coordinated to the heme iron with the azole heterocycle. Type II difference spectra were obtained for FLC, VCZ, ITC and PCZ binding to both mutant enzymes. The binding of FLC is shown as an example (Fig. 2b). The type II difference spectra for the mutant enzymes were less intense than for the wild type enzyme. They gave 2–3-fold smaller differences in absorbance (ΔAmax), with peaks shifted from 428 nm for wild type enzyme to 424–425 nm for the mutant enzymes plus less well-defined troughs between 406–410 nm (Supplementary Table S3). […] These values indicate tight binding for each drug tested.
(§4) The concentration of functional cytochrome P450 for drug binding studies was determined using the carbon monoxide binding spectra according to the protocol described by Guengerich et al.[33]. Affinity purified ScErg11p6 × His used for spectroscopic assays was eluted using affinity purification buffer containing 50 mM L-histidine instead of imidazole. L-histidine was removed from the sample by washing the enzyme with solubilisation buffer containing 16 mM DM using 50 kDa molecular-weight cut-off Amicon Ultra-4 centrifugal filters (Merck Millipore Ltd, Cork, Ireland). The removal of L-histidine was checked by taking the absolute spectra of the sample using the Ultrospec™ 6300 pro UV/Visible spectrophotometer. The heme peak for wild type protein with no ligand was at ~417 nm. With L-histidine bound the peak was detected at ~420 nm. Enzyme concentration was determined by saturating the sample cuvette with CO gas prior to the addition of sodium dithionite. The reference cuvette containing the same amount of enzyme was treated with sodium dithionite only. The P450 concentration was determined by measuring the difference in absorbance between 446 and 490 nm and using the extinction coefficient of 91 mM^−1 cm^−1 [58]. Absorption spectra were recorded with a Cary 1 Bio UV-visible spectrophotometer using 10 mm path UV transparent plastic cuvettes (GE Healthcare Life Sciences, UK). Difference spectra were measured using 1 μM ScErg11p6 × His wild type or Y140F/H enzyme titrated with the triazole drugs ITC, PCZ, VCZ and FLC. Triazole drugs dissolved in DMSO were added to the sample cuvette, with the same amount of DMSO added to the reference cuvette. The total amount of DMSO was <2% of the total volume in the cuvette. Difference spectra between 350–500 nm were recorded and the trough-peak absorbance changes were used to plot binding curves. The dissociation constant Kd for type II binding of triazole drugs was calculated using GraphPad Prism 6 Software (GraphPad Prism, San Diego, CA) by applying the Hill equation using the formula ΔA = ΔAmax [Azole]^n/([Azole]^n + Kd^n), with ΔAmax being the maximum change in absorbance and [Azole] the azole concentration.

ScErg11p6 × His Y140H = biological target: T2, ScErg11p6 × His Y140H (Saccharomyces cerevisiae, UniProt P10614, Y140H); assay: Type II difference spectra triazole binding to affinity purified Y140H mutant enzyme; settings: for Hill number / IC50 / Kd: Y140H enzyme 1 μM; for IC50 / Kd: Hill equation fit; for IC50: IC50 value is denoted as [Azole]0.5; for Kd: standard error in brackets; for ΔAmax of type II difference spectra: Y140H enzyme, Ni-NTA affinity purified
T2 construct: full-length Saccharomyces cerevisiae hexahistidine-tagged Erg11p (ScErg11p6 × His); made in house; host or cells: Saccharomyces cerevisiae strain AD3ΔScErg11_Y140H (native ERG11 deleted)
Method: as §3, §4

AD3ΔScErg11p_Y140F = assay: Broth microdilution MIC80, strain overexpressing Y140F enzyme; format: cell-based, Saccharomyces cerevisiae; settings: for fold lower susceptibility (MIC80) than strain overexpressing wild type ScErg11p6 × His: Y140F strain vs wild type strain
Method: as §1
The S. cerevisiae AD2Δ host was used to create the strains used in this study. The strain was made by deletion of the HIS1 gene from the previously described ADΔ[49] strain. ADΔ and AD2Δ lack 7 major ATP-binding cassette transporters and the PDR3 gene. Both strains have the gain-of function pdr1–3 mutation in the PDR1 transcriptional regulator gene to provide constitutive overexpression of ScErg11p6 × His from the PDR5 locus. Yeast strains were grown on YPD medium: 1% (wt/vol) Bacto-yeast extract (BD Difco™ Laboratories Inc, Franklin Lakes, NJ), 2% (wt/vol) Bacto-peptone (BD Difco™) and 2% (wt/vol) glucose. Synthetic defined (SD) medium was used for selection of transformants. It contained 2% (wt/vol) glucose, 0.67% (wt/vol) yeast nitrogen base without amino acids (BD Difco™), 2% (wt/vol) agar (Oxoid Ltd., Hampshire, UK) and either uracil drop-out (Qbiogene, Irvine, CA) or histidine drop-out (Formedium™, Norfolk, UK) complete supplement mixture. Liquid SD media with complete supplement mixture (Formedium™) containing 10 mM MES and 20 mM HEPES buffered with TRIS to pH 6.8 was used for MIC80 determinations.
The susceptibilities of strains overexpressing wild type ScErg11p6 × His and ScErg11p6 × His Y140F/H to triazole drugs were measured as MIC80 values using broth microdilution assays. The MIC80s were defined as 80% growth inhibition compared to no drug controls because triazole drugs are fungistatic rather than fungicidal and can give trailing growth. MIC80s to FLC, ITC and VCZ were determined in 96-well microtiter plates using SD buffered to pH 6.8 instead of RPMI[50]. Cells were seeded at OD600nm = 0.005 (1.5 × 10^4 CFU) and the plates were incubated in 30 °C with shaking at 200 rpm for 48 hrs. Cell growth was assessed by measuring the OD600nm of wells using a BioTek Synergy™ 2 multi-mode plate reader (BioTek Instruments, Vermont, USA). Each MIC80 was determined using triplicate measurements for three clones of each strain in three separate experiments.

[2] = biological target: T3, wild type ScErg11p6 × His (Saccharomyces cerevisiae, UniProt P10614); assay: Type II difference spectra triazole binding to affinity purified wild type enzyme; settings: for Hill number / IC50 / Kd: wild-type enzyme 1 μM; for IC50 / Kd: Hill equation fit; for IC50: IC50 value is denoted as [Azole]0.5; for Kd: standard error in brackets; for ΔAmax of type II difference spectra: wild-type enzyme, Ni-NTA affinity purified
T3 construct: full-length Saccharomyces cerevisiae hexahistidine-tagged Erg11p (ScErg11p6 × His); made in house; host or cells: Saccharomyces cerevisiae strain AD3ΔScErg11p (overexpression from the PDR5 locus, native ERG11 deleted)
Method: as §3, §4

[3] = system: C. albicans Erg11p (CaErg11p) Y132F/H; settings: Y132F/H mutations detected in clinical isolates; cited from earlier work
AfCYP51A [4] = biological target: AfCYP51A; parameters: method as in PMID 26459890; settings: type II binding, cited from earlier work
AD3ΔScErg11p_Y140H = assay: Broth microdilution MIC80, strain overexpressing Y140H enzyme; format: cell-based; settings: Saccharomyces cerevisiae, 48 h, pH 6.8, 80% growth inhibition, SD medium pH 6.8, 30 °C, native ERG11 deleted
Method: as §1
The S. cerevisiae AD2Δ host was used to create the strains used in this study. The strain was made by deletion of the HIS1 gene from the previously described ADΔ[49] strain. […]
as §2

AfCYP51B [5] = system: AfCYP51B; parameters: method as in PMID 26459890; settings: membrane preparations, enzyme heterologously expressed in E. coli; cited from earlier work
AfCYP51A [6] = settings: cited from earlier work
AfCYP51B [7] = biological target: AfCYP51B; parameters: method as in PMID 26459890; settings: type II binding, Ni-NTA affinity purified enzyme; cited from earlier work
[8] = Saccharomyces cerevisiae, 48 h, pH 6.8

T2 sequence (P10614 whole entry Y140H): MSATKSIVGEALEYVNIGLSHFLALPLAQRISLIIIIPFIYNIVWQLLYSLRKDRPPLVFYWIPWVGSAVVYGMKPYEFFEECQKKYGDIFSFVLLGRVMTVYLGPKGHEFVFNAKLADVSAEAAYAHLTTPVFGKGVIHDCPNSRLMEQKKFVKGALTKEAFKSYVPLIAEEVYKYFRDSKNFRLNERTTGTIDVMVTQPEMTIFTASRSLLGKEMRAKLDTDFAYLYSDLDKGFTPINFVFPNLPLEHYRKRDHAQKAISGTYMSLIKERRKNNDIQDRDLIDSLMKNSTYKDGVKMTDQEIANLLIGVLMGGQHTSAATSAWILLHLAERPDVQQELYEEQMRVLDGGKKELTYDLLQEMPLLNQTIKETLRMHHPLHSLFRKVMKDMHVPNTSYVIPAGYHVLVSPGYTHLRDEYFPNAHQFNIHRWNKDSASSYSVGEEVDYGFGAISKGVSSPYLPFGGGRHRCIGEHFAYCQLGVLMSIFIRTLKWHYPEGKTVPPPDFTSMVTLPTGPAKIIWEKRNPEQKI
T1 sequence (P10614 whole entry Y140F): as the sequence (P10614 whole entry Y140H) above, with H140F counted along it
T3 sequence (P10614 whole entry): as the sequence (P10614 whole entry Y140H) above, with H140Y counted along it

| Compound | MIC80 [1] | Hill number (ScErg11p6 × His Y140F) | IC50 (ScErg11p6 × His Y140F) | Kd (ScErg11p6 × His Y140F) | ΔAmax of type II difference spectra (ScErg11p6 × His Y140F) | Hill number (ScErg11p6 × His Y140H) | IC50 (ScErg11p6 × His Y140H) | Kd (ScErg11p6 × His Y140H) | ΔAmax of type II difference spectra (ScErg11p6 × His Y140H) | Hill number [2] | IC50 [2] | Kd [2] | ΔAmax of type II difference spectra [2] | MIC80 (AD3ΔScErg11p_Y140H) | MIC80 (AD3ΔScErg11p_Y140F; [8]) | fold lower susceptibility (MIC80) than strain overexpressing wild type ScErg11p6 × His (AD3ΔScErg11p_Y140F) | other results |
| --- | --- | --- | --- | --- | --- | --- | --- | --- | --- | --- | --- | --- | --- | --- | --- | --- | --- |
| CCC(C)n1ncn(-c2ccc(N3CCN(c4ccc(OCC5COC(Cn6cncn6)(c6ccc(Cl)cc6Cl)O5)cc4)CC3)cc2)c1=O (stereo not drawn) [ITC, itraconazole] | 0.105 µg/mL | 1.83 | 330 nM | 130 nM | 0.014 | 1.48 | 250 nM | 130 nM | 0.016 | 1.6 | 280 nM | 123 nM | 0.037 |  |  |  | MIC80 (AD3ΔScErg11p_Y140F; 80% growth inhibition, SD medium pH 6.8, 30 °C, 48 hrs, native ERG11 deleted): 0.09 µg/mL; MIC80 (AD3ΔScErg11p_Y140F; Saccharomyces cerevisiae, 80% growth inhibition, SD medium pH 6.8, 30 °C, 48 hrs, native ERG11 deleted, read-out: MIC80): 0.09 µg/mL |
| CC[C@@H]([C@H](C)O)n1ncn(-c2ccc(N3CCN(c4ccc(OC[C@@H]5CO[C@@](Cn6cncn6)(c6ccc(F)cc6F)C5)cc4)CC3)cc2)c1=O [PCZ, posaconazole] |  | 1.57 | 290 nM | 150 nM | 0.016 | 1.57 | 230 nM | 100 nM | 0.016 | 2.2 | 320 nM | 78 nM | 0.031 |  |  |  |  |
| OC(Cn1cncn1)(Cn1cncn1)c1ccc(F)cc1F [FLC, fluconazole] | 2.1 µg/mL | 1.86 | 330 nM | 130 nM | 0.023 | 1.68 | 270 nM | 110 nM | 0.016 | 3.0 | 430 nM | 74 nM | 0.048 | 3.4 µg/mL | 4 µg/mL | 2 fold | fold increase in resistance [3]: 4 fold; Kd (AfCYP51A [4]; Ni-NTA affinity purified enzyme): 12000 nM; fold difference in Kd values AfCYP51A vs AfCYP51B (AfCYP51A [4]; Ni-NTA affinity purified enzymes): 3 fold; IC50 (AfCYP51B [5]): 500 nM; IC50 (AfCYP51A [6]; membrane preparations, enzyme heterologously expressed in E. coli): 17000 nM; fold higher IC50 for AfCYP51A compared to AfCYP51B (AfCYP51A [6]; reconstituted membrane assay): 34 fold; Kd (AfCYP51B [7]): 4000 nM |
| C[C@@H](c1ncncc1F)[C@](O)(Cn1cncn1)c1ccc(F)cc1F [VCZ, voriconazole] | 0.25 µg/mL | 2.60 | 270 nM | 30 nM | 0.019 | 1.23 | 290 nM | 220 nM | 0.018 | 2.7 | 400 nM | 82 nM | 0.051 | 0.29 µg/mL | 0.42 µg/mL | 1.7 fold |  |
